IC50 data for 68 compounds are collected here from US9617282B2, “Macrocyclic compounds as IRAK4 inhibitors for the treatment of inflammatory diseases” (BIOGEN MA INC., priority 2013, dated 2017).

Sequence of IRAK4 (Q9NWZ3 whole entry, species assumed): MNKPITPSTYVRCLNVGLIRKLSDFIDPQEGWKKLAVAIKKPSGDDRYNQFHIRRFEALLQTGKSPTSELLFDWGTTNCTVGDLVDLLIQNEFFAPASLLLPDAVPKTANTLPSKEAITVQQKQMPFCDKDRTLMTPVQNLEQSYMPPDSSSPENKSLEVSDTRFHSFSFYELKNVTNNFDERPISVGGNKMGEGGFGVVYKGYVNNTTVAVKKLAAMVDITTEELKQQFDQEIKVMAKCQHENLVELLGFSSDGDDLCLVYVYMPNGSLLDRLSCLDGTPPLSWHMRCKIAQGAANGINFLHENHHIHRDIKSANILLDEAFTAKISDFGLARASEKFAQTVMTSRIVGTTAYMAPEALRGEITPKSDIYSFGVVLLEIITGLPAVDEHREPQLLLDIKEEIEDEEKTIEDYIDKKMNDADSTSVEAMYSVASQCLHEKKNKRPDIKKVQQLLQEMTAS

The first assay concerns the target IRAK4 (Homo sapiens (Human), UniProt Q9NWZ3). Nature of the assay: IRAK-4 biochemical kinase assay, AlphaScreen format. As to conditions: 1 nM IRAK4, 1.6 μM peptide, 10 μM ATP, 3.5 h at RT; class symbols. As for the experimental part: The biochemical assay is in a AlphaScreen format. The kinase reaction is based on the IRAK-4 phosphorylation of a biotin labeled peptide. The phosphopeptide is incubated with anti-phosphothreonine antibody as well as streptavidin- and protein A-coated beads. Binding of the protein-A coated beads to the antibody and the streptavidin beads to the peptide, leads to an energy transfer from one bead to the other, ultimately producing a luminescent/fluorescent signal.
In the case of `O=C1NCc2ccc(cc2)OCCOc2cc(ccn2)-c2nc1co2` [Example 78], the IC50 was under 10000 nM.

Compound `O=C1NCC2CCCC(C2)OCCCNc2cc(ccn2)-c2nc1cs2` (centres unmarked) [Example 80] came in with an IC50 of under 10000 nM.

`O=C1Nc2ccccc2OC2CCC(CCc3cc(ccn3)-c3nc1co3)CC2` [Example 81] gave an IC50 of under 100 nM.

As to `O=C1NCC2CCC(CC2)OCCNc2cc(ccn2)-c2nc1co2` [Example 85], the IC50 was under 1000 nM.

Regarding `O=C1NCCOC2CCC(CC2)CNc2cc(ccn2)-c2nc1cs2` [Example 88], the IC50 is under 10000 nM.

For the compound `Cn1cc2c(n1)C(=O)NCCCCOc1cc(ccn1)-c1nc(c[nH]1)C(=O)N2` [Example 92], the IC50 was under 10000 nM.

Compound `Cn1cc2c(n1)C(=O)N(COCC[Si](C)(C)C)CCCCOc1cc(ccn1)-c1nc(cn1COCC[Si](C)(C)C)C(=O)N2` [Example 93] yielded an IC50 of under 10000 nM.

Regarding `O=C1Nc2cn(C3CCOCC3)nc2C(=O)NCCCCCc2cc(ccn2)-c2nc1c[nH]2` [Example 97], the IC50 was under 10000 nM.

In turn, `C[Si](C)(C)CCOCn1cc2nc1-c1ccnc(c1)CCCCCNC(=O)c1nn(C3CCOCC3)cc1NC2=O` [Example 98] registered an IC50 of under 10000 nM.

The compound `Cn1cc2c(n1)C(=O)NCCCCCc1cc(ccn1)-c1nc(cn1COCC[Si](C)(C)C)C(=O)N2` [Example 99] registered an IC50 of under 10000 nM.

The compound `CN1CCCCCCOc2cc(ccn2)-c2nc(cs2)C1=O` [Example 103] displayed an IC50 of under 10000 nM.

`O=C1c2coc(n2)-c2ccnc(c2)OCCCCOCC2CCCN12` (centres unmarked) [Example 104] gave an IC50 of under 10000 nM.

As to `O=C1c2csc(n2)-c2ccnc(c2)OCCCCOCC2CCCN12` (centres unmarked) [Example 106], the IC50 is under 10000 nM.

`CN1CCN(CCn2ncc3c2C(=O)NCCOCCOc2cc(ccn2)-c2nc(cs2)C(=O)N3)CC1` [Example 141] returned an IC50 of under 10000 nM.

In turn, `CN1CCC(CCn2ncc3c2C(=O)NCCOCCOc2cc(ccn2)-c2nc(cs2)C(=O)N3)CC1` [Example 156] returned an IC50 of under 10000 nM.

`CC(C)(C)OC(=O)N1CCC(CCn2ncc3c2C(=O)NCCOCCOc2cc(ccn2)-c2nc(cs2)C(=O)N3)CC1` [Example 157] had an IC50 of under 10000 nM.

The compound `O=C1Nc2cn(C3CCNCC3)nc2C(=O)NCCOCCOc2cc(ccn2)-c2nc1cs2` [Example 165] came in with an IC50 of under 100 nM.

In turn, `CC(C)(C)OC(=O)N1CCNC(=O)c2nn(C3CCOCC3)cc2NC(=O)c2csc(n2)-c2ccnc(c2)OCC1` [Example 167] returned an IC50 of under 1000 nM.

`O=C1Nc2cn(C3CCOCC3)nc2C(=O)NCCNCCCc2cc(ccn2)-c2nc1cs2` [Example 168] registered an IC50 of under 100 nM.

Compound `CC(C)(C)OC(=O)NCCC(=O)N1CCCc2cc(ccn2)-c2nc(cs2)C(=O)Nc2cn(C3CCOCC3)nc2C(=O)NCC1` [Example 171] came in with an IC50 of under 100 nM.

In turn, `CC(C)N1CCCc2cc(ccn2)-c2nc(cs2)C(=O)Nc2cn(C3CCOCC3)nc2C(=O)NCC1` [Example 174] had a concentration for half-maximal inhibition (IC50) of under 100 nM.

With `NC(=O)CN1CCCc2cc(ccn2)-c2nc(cs2)C(=O)Nc2cn(C3CCOCC3)nc2C(=O)NCC1` [Example 175], the IC50 was under 1000 nM.

In turn, `CN(C)CCC(=O)N1CCCc2cc(ccn2)-c2nc(cs2)C(=O)Nc2cn(C3CCOCC3)nc2C(=O)NCC1` [Example 177] displayed an IC50 of under 100 nM.

As for `NCCC(=O)N1CCCc2cc(ccn2)-c2nc(cs2)C(=O)Nc2cn(C3CCOCC3)nc2C(=O)NCC1` [Example 178], the IC50 was under 100 nM.

Compound `O=C(O)CCN1CCCc2cc(ccn2)-c2nc(cs2)C(=O)Nc2cn(C3CCOCC3)nc2C(=O)NCC1` [Example 179] registered an IC50 of under 100 nM.

Compound `CCOC(=O)CCN1CCCc2cc(ccn2)-c2nc(cs2)C(=O)Nc2cn(C3CCOCC3)nc2C(=O)NCC1` [Example 180] registered an IC50 of under 100 nM.

With `NC(=O)CCN1CCCc2cc(ccn2)-c2nc(cs2)C(=O)Nc2cn(C3CCOCC3)nc2C(=O)NCC1` [Example 181], the IC50 is under 100 nM.

Consider `CC(C)(C)C(=O)N1CCCc2cc(ccn2)-c2nc(cs2)C(=O)Nc2cn(C3CCOCC3)nc2C(=O)NCC1` [Example 182], for which the IC50 is under 1000 nM.

Compound `CCC(=O)N1CCCc2cc(ccn2)-c2nc(cs2)C(=O)Nc2cn(C3CCOCC3)nc2C(=O)NCC1` [Example 183] had an IC50 of under 100 nM.

On to `O=C1Nc2cn(C3CCOCC3)nc2C(=O)NCCN(C(=O)C2CC2)CCCc2cc(ccn2)-c2nc1cs2` [Example 184], for which the IC50 is under 100 nM.

For the compound `CC(C)(CO)C(=O)N1CCCc2cc(ccn2)-c2nc(cs2)C(=O)Nc2cn(C3CCOCC3)nc2C(=O)NCC1` [Example 185], the IC50 was under 100 nM.

For `CNC(=O)N1CCCc2cc(ccn2)-c2nc(cs2)C(=O)Nc2cn(C3CCOCC3)nc2C(=O)NCC1` [Example 186], the IC50 is under 100 nM.

In the case of `CN(C)C(=O)N1CCCc2cc(ccn2)-c2nc(cs2)C(=O)Nc2cn(C3CCOCC3)nc2C(=O)NCC1` [Example 187], the IC50 was under 1000 nM.

For the compound `O=C1Nc2cn(C3CCOCC3)nc2C(=O)NCCN(C(=O)CCO)CCCc2cc(ccn2)-c2nc1cs2` [Example 188], the IC50 was under 100 nM.

With `CCOC(=O)CC(=O)N1CCCc2cc(ccn2)-c2nc(cs2)C(=O)Nc2cn(C3CCOCC3)nc2C(=O)NCC1` [Example 189], the IC50 was under 100 nM.

In turn, `O=C1Nc2cn(C3CCOCC3)nc2C(=O)NCCN(C(=O)C2CCOCC2)CCCc2cc(ccn2)-c2nc1cs2` [Example 190] had a half-inhibitory concentration (IC50) of under 100 nM.

Take `CCNC(=O)N1CCCc2cc(ccn2)-c2nc(cs2)C(=O)Nc2cn(C3CCOCC3)nc2C(=O)NCC1` [Example 191]: the IC50 is under 100 nM.

With `O=C1Nc2cn(C3CCOCC3)nc2C(=O)NCCCc2cc(ccn2)-c2nc1cs2` [Example 192], the IC50 is under 10000 nM.

`O=C(CCC1NC(=O)c2nn(C3CCOCC3)cc2NC(=O)c2csc(n2)-c2ccnc(c2)CCCNC1=O)NCc1ccccc1` (centres unmarked) [Example 193] registered an IC50 of under 1000 nM.

In turn, `O=C(O)CCC1NC(=O)c2nn(C3CCOCC3)cc2NC(=O)c2csc(n2)-c2ccnc(c2)CCCNC1=O` (centres unmarked) [Example 194] registered an IC50 of under 10000 nM.

The compound `NC(=O)CCC1NC(=O)c2nn(C3CCOCC3)cc2NC(=O)c2csc(n2)-c2ccnc(c2)CCCNC1=O` (centres unmarked) [Example 195] showed an IC50 of under 1000 nM.

The compound `O=C1CNC(=O)c2nn(C3CCOCC3)cc2NC(=O)c2csc(n2)-c2ccnc(c2)CCCN1` [Example 196] yielded an IC50 of under 100 nM.

Regarding `CC1NC(=O)c2nn(C3CCOCC3)cc2NC(=O)c2csc(n2)-c2ccnc(c2)CCCNC1=O` (centres unmarked) [Example 197], the IC50 is under 1000 nM.

Take `O=C1Nc2cn(C3CCOCC3)nc2C(=O)NC(CCO)C(=O)NCCCc2cc(ccn2)-c2nc1cs2` (centres unmarked) [Example 198]: the IC50 was under 10000 nM.

With `Cn1cc2c(n1)C(=O)NCCOCCOc1cc(ccn1)-n1cc(cn1)C(=O)N2` [Example 202], the IC50 was under 10000 nM.

In turn, `Cn1cc2c(n1)C(=O)NCCOCCOc1cc(ccn1)-c1cccc(n1)C(=O)N2` [Example 203] showed an IC50 of under 100 nM.

In turn, `O=C1Nc2cn(C3CCOCC3)nc2C(=O)NCCOCCOc2cc(ccn2)-c2cccc1n2` [Example 204] came in with an IC50 of under 1000 nM.

For the compound `Cn1cc2c(n1)C(=O)NCCOCCOc1cc(ccn1)-c1cccc(c1)C(=O)N2` [Example 209], the IC50 was under 1000 nM.

Turning to `O=C1Nc2cn(C3CCOCC3)nc2C(=O)NCCOCCOc2cc(ccn2)-c2cccc1c2` [Example 210], the IC50 is under 100 nM.

As to `O=C1Nc2cn(C3CCOCC3)nc2C(=O)NCCOCCOc2cc(ccn2)-c2cc1ccn2` [Example 212], the IC50 was under 1000 nM.

As to `Cn1cc2c(n1)C(=O)NCCOCCOc1cc(ccn1)-c1csc(n1)C(=O)N2` [Example 213], the IC50 was under 10000 nM.

The compound `O=C1Nc2cn(C3CCOCC3)nc2C(=O)NCCOCCOc2cc(ccn2)-c2csc1n2` [Example 214] had an IC50 of under 1000 nM.

The compound `Cn1cc2c(n1)C(=O)NCCCOCCCc1cc(ccn1)-c1nc(cs1)C(=O)N2` [Example 215] showed an IC50 of under 100 nM.

Compound `O=C1Nc2cn(C3CCOCC3)nc2C(=O)NCCCOCCCc2cc(ccn2)-c2nc1cs2` [Example 216] returned an IC50 of under 100 nM.

Turning to `CN1CCOCCNC(=O)c2nn(C3CCOCC3)cc2NC(=O)c2csc(n2)-c2ccnc1c2` [Example 219], the IC50 was under 100 nM.

Compound `CN1CCOCCNC(=O)c2nn(CCN3CCOCC3)cc2NC(=O)c2csc(n2)-c2ccnc1c2` [Example 220] returned an IC50 of under 100 nM.

The compound `CN1CCOCCNC(=O)c2nn(CCN3CCCCC3)cc2NC(=O)c2csc(n2)-c2ccnc1c2` [Example 221] returned an IC50 of under 100 nM.

`CN1CCOCCNC(=O)c2nn(C)cc2NC(=O)c2csc(n2)-c2ccnc1c2` [Example 222] registered an IC50 of under 100 nM.

`CN1CCCCNC(=O)c2nn(C)cc2NC(=O)c2csc(n2)-c2ccnc1c2` [Example 223] came in with an IC50 of under 100 nM.

As for `CN1CCCCNC(=O)c2nn(C3CCOCC3)cc2NC(=O)c2csc(n2)-c2ccnc1c2` [Example 224], the IC50 is under 100 nM.

The same assay, now with this note: 1 nM IRAK4, 1.6 μM peptide, 10 μM ATP, 3.5 h at RT; given as numeric bound.
The compound `Cn1cc(N2CCCCOc3cnccc3-c3nc(co3)C2=O)cn1` [Example 89] had an IC50 of over 10000 nM.

`Cn1cc2c(n1)C(=O)NCCCCOc1cc(ccn1)-c1nc(cn1COCC[Si](C)(C)C)C(=O)N2` [Example 94] gave an IC50 of over 10000 nM.

`CN1CCCOc2cnccc2-c2nc(cs2)C1=O` [Example 100] showed an IC50 of over 10000 nM.

In turn, `CN1CCCOc2cnccc2-c2nc(c[nH]2)C1=O` [Example 101] showed a concentration for half-maximal inhibition (IC50) of over 10000 nM.

`O=C1c2coc(n2)-c2ccncc2OCCCN1CCCN1CCCCC1` [Example 102] showed an IC50 of over 10000 nM.

`CCOC(=O)CN1CCCc2cc(ccn2)-c2nc(cs2)C(=O)Nc2cn(C3CCOCC3)nc2C(=O)NCC1` [Example 176]: the IC50 was over 10000 nM.

Consider `O=C1Nc2cn(C3CCOCC3)nc2C(=O)NC(CCOCc2ccccc2)C(=O)NCCCc2cc(ccn2)-c2nc1cs2` (centres unmarked) [Example 199], for which the IC50 is over 10000 nM.

In turn, `Cn1cc2c(n1)C(=O)NCCOCCOc1cc(ccn1)C1=CC=C(S1)C(=O)N2` [Example 205] yielded an IC50 of over 10000 nM.
